# Source: patent US20240116985A1, “STAPLED PEPTIDES AND METHODS THEREOF” (priority 2020, published 2024)
# Target: T1, full-length beta-Catenin (Uniprot ID P35222) (Homo sapiens, UniProt P35222)
# T1 construct: 10 nM full-length beta-Catenin (Uniprot ID P35222)
# T1 sequence (P35222 1-781): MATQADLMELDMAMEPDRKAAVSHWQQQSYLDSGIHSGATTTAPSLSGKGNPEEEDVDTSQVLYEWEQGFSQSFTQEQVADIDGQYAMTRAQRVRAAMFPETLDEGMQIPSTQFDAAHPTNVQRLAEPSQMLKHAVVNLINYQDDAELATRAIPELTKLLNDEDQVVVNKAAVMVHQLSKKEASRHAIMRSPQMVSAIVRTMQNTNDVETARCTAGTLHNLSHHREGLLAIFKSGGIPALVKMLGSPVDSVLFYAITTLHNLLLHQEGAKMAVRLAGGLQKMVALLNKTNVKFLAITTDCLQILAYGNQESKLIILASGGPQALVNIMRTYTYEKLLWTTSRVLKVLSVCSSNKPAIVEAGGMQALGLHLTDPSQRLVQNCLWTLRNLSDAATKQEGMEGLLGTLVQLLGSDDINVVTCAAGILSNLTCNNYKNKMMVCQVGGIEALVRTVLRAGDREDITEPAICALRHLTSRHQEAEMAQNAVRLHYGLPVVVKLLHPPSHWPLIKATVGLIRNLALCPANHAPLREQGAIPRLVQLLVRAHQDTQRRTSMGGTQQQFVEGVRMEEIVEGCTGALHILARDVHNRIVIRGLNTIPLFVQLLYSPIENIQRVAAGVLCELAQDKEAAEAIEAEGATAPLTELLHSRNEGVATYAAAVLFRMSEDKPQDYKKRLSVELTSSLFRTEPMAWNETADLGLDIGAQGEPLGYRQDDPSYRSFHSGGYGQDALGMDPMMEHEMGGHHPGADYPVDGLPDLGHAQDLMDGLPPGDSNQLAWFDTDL
# Test: Fluorescence polarization IC50 (beta-catenin / 5FAM-TCF4 10-53 competition)
# Assay type: binding
# Conditions: fluorescence polarization; read-out: beta-Catenin FP IC50
row,SMILES,IC50 [nM]
1,"CCCCCCCC(=O)N1CCC[C@]12CC=CCCCC1(CCCC=CCCCOC(=O)N3CC[C@@](C(=O)N[C@@H](Cc4ccccc4)C(=O)N[C@@H](Cc4csc5ccccc45)C(=O)N[C@@H](CO)C(N)=O)(C3)NC(=O)[C@H](CO)NC(=O)[C@H](Cc3ccccc3)NC(=O)[C@H](C)NC(=O)[C@H](C)NC(=O)[C@H](CC(=O)O)NC(=O)[C@H](CC(=O)O)NC1=O)NC(=O)[C@H](CC(C)(C)C)NC(=O)[C@H](CC(=O)O)NC2=O (stereo partly drawn) [I-1355, Oct-PL3-Asp-Npg-B5-Asp-Asp-Ala-Ala-Phe-Ser-PyrS2-Phe-BztA-Ser-NH2]",213
2,"CC(=O)N1CCC[C@]12CC=CCCCC1(CCCC=CCCCOC(=O)N3CC[C@@](C(=O)N[C@@H](Cc4ccccc4Cl)C(=O)N[C@@H](Cc4csc5ccccc45)C(=O)N[C@H](CO)CC(C)C)(C3)NC(=O)[C@H](CC(C)C)NC(=O)[C@H](Cc3ccccc3)NC(=O)[C@H](C)NC(=O)[C@H](C)NC(=O)[C@H](CC(=O)O)NC(=O)[C@H](CC(=O)O)NC1=O)NC(=O)[C@H](CC(C)(C)C)NC(=O)[C@H](CC(=O)O)NC2=O (stereo partly drawn) [I-1251, Ac-PL3-Asp-Npg-B5-Asp-Asp-Ala-Ala-Phe-Leu-PyrS2-2C1F-BztA-Leuo1]",1940
3,"CC(=O)N1CCC[C@]12CC=CCCCCC1(CCCCC=CCCCOC(=O)N3CC[C@@](C(=O)N[C@@H](Cc4ccccc4C(F)(F)F)C(=O)N[C@@H](Cc4csc5ccccc45)C(=O)N[C@@H](C)C(N)=O)(C3)NC(=O)[C@H](CC(C)C)NC(=O)[C@H](Cc3ccccc3)NC(=O)[C@H](C)NC(=O)[C@H](CCC(N)=O)NC(=O)[C@H](Cc3cccc(C(=O)O)c3)NC(=O)[C@H](CC(=O)O)NC1=O)NC(=O)[C@H](CC(C)(C)C)NC(=O)[C@H](CC(=O)O)NC2=O (stereo partly drawn) [I-2516, Ac-PL3-Asp-Npg-B6-Asp-3COOHF-Gln-Ala-Phe-Leu-PyrS2-2F3MeF-BztA-Ala-NH2]",209
4,"CC(=O)N1CCC[C@]12CC=CCCCC1(CCCC=CCCCCCC[C@@](C)(C(=O)N[C@@H](Cc3ccccc3)C(=O)N[C@@H](Cc3csc4ccccc34)C(=O)N[C@@H](CCC(N)=O)C(N)=O)NC(=O)[C@H](CCC(N)=O)NC(=O)[C@H](Cc3ccccc3)NC(=O)[C@H](C)NC(=O)[C@H](C)NC(=O)[C@H](CCC(=O)O)NC(=O)[C@H](CC(=O)O)NC1=O)NC(=O)[C@H](CCC(N)=O)NC(=O)[C@H](CC(=O)O)NC2=O (stereo partly drawn) [I-1540, Ac-PL3-Asp-Gln-B5-Asp-Glu-Ala-Ala-Phe-Gln-S8-Phe-BztA-Gln-NH2]",17
5,"CC(=O)N1CCC[C@]12CC=CCCCC1(CCCC=CCCCCCC[C@@](C)(C(=O)N[C@@H](Cc3ccsc3)C(=O)N[C@@H](Cc3csc4ccccc34)C(=O)N[C@H](CO)[C@@H](C)O)NC(=O)[C@H](CCO)NC(=O)[C@H](Cc3ccccc3)NC(=O)[C@H](C)NC(=O)[C@H](C)NC(=O)[C@H](CC(=O)O)NC(=O)[C@H](CC(=O)O)NC1=O)NC(=O)[C@H](CC(C)(C)C)NC(=O)[C@H](CC(=O)O)NC2=O (stereo partly drawn) [I-1390, Ac-PL3-Asp-Npg-B5-Asp-Asp-Ala-Ala-Phe-Hse-S8-3Thi-BztA-Thro1]",16
6,"CC(=O)N1CCC[C@]12CC=CCCCC1(CCCC=CCCCOC(=O)N3CC[C@@](C(=O)N[C@@H](Cc4ccsc4)C(=O)N[C@@H](Cc4csc5ccccc45)C(=O)N[C@@H](CCC(N)=O)C(N)=O)(C3)NC(=O)[C@H](Cc3c[nH]c4ccccc34)NC(=O)[C@H](Cc3ccccc3)NC(=O)[C@H](C)NC(=O)[C@H](C)NC(=O)[C@H]([C@@H](C)O)NC(=O)[C@H](CC(N)=O)NC1=O)NC(=O)[C@H](CC(C)(C)C)NC(=O)[C@H](CC(=O)O)NC2=O (stereo partly drawn) [I-1741, Ac-PL3-Asp-Npg-B5-Asn-Thr-Ala-Ala-Phe-Trp-PyrS2-3Thi-BztA-Gln-NH2]",4390
7,"CCOC(=O)C[C@@H]1NC(=O)[C@]2(CC=CCCCC3(CCCC=CCCCOC(=O)N4CC[C@@](C(=O)N[C@@H](Cc5ccsc5)C(=O)N[C@@H](Cc5csc6ccccc56)C(=O)N[C@@H](CCC(N)=O)C(N)=O)(C4)NC(=O)[C@H](CC(C)C)NC(=O)[C@H](Cc4ccccc4)NC(=O)[C@H](C)NC(=O)[C@H](C)NC(=O)[C@H](CC(=O)O)NC(=O)[C@H](CC(=O)O)NC3=O)NC(=O)[C@H](CC(C)(C)C)NC1=O)CCCN2C(C)=O (stereo partly drawn) [I-2356, Ac-PL3-[Et]AspE-Npg-B5-Asp-Asp-Ala-Ala-Phe-Leu-PyrS2-3Thi-BztA-Gln-NH2]",5270
8,"CC(=O)N1CCC[C@]12CC=CCCCC1(CCCC=CCCCOC(=O)N3CC[C@@](C(=O)N[C@@H](Cc4ccsc4)C(=O)N[C@@H](Cc4csc5ccccc45)C(=O)N[C@@H](CC(C)C)C(N)=O)(C3)NC(=O)[C@H](CC(N)=O)NC(=O)[C@H](Cc3ccccc3)NC(=O)[C@H](C)NC(=O)[C@H](C)NC(=O)[C@H]([C@@H](C)O)NC(=O)[C@H](CC(N)=O)NC1=O)NC(=O)[C@H](CC(C)(C)C)NC(=O)[C@H](CC(=O)O)NC2=O (stereo partly drawn) [I-1880, Ac-PL3-Asp-Npg-B5-Asn-Thr-Ala-Ala-Phe-Asn-PyrS2-3Thi-BztA-Leu-NH2]",868
9,"CC(=O)N1CCC[C@]12CCCCCCC1(CCCCCCCCOC(=O)N3CC[C@@](C(=O)N[C@@H](Cc4ccsc4)C(=O)N[C@@H](Cc4csc5ccccc45)C(=O)N[C@@H](CC(C)C)C(N)=O)(C3)NC(=O)[C@H]([C@@H](C)O)NC(=O)[C@H](Cc3ccccc3)NC(=O)[C@H](C)NC(=O)[C@H](C)NC(=O)[C@H](CN(CC(=O)O)CC(F)(F)F)NC(=O)[C@H](CC(=O)O)NC1=O)NC(=O)[C@H](CC(C)(C)C)NC(=O)[C@H](CC(=O)O)NC2=O (stereo partly drawn) [I-1754, Ac-PL3-Asp-Npg-B5-Asp-TfeGA-Ala-Ala-Phe-Thr-PyrS2-3Thi-BztA-Leu-NH2]",660
10,"CC(=O)N1CCC[C@]12CC=CCCCC1(CCCC=CCCCCOC(=O)N3CCC(C(=O)N[C@@H](Cc4ccccc4C(F)(F)F)C(=O)N[C@@H](Cc4csc5ccccc45)C(=O)N[C@@H](C)C(N)=O)(CC3)NC(=O)[C@H](CC(C)C)NC(=O)[C@H](Cc3ccccc3)NC(=O)[C@H](C)NC(=O)[C@H](CCC(N)=O)NC(=O)[C@H](Cc3cccc(C(=O)O)c3)NC(=O)[C@H](CC(=O)O)NC1=O)NC(=O)[C@H](CC(C)(C)C)NC(=O)[C@H](CC(=O)O)NC2=O (stereo partly drawn) [I-2587, Ac-PL3-Asp-Npg-B5-Asp-3COOHF-Gln-Ala-Phe-Leu-SPip3-2F3MeF-BztA-Ala-NH2]",273
11,"CC(=O)N1CCC[C@]12CC=CCCCC1(CCCC=CCCCCOC(=O)N3CC(C(=O)N[C@@H](Cc4ccccc4C(F)(F)F)C(=O)N[C@@H](Cc4csc5ccccc45)C(=O)N[C@@H](CCC(N)=O)C(N)=O)(C3)NC(=O)[C@H](CC(C)C)NC(=O)[C@H](Cc3ccccc3)NC(=O)[C@H](C)NC(=O)C(C)(C)NC(=O)[C@H](Cc3cccc(C(=O)O)c3)NC(=O)[C@H](CC(=O)O)NC1=O)NC(=O)[C@H](CC(C)(C)C)NC(=O)[C@H](CC(=O)O)NC2=O (stereo partly drawn) [I-2616, Ac-PL3-Asp-Npg-B5-Asp-3COOHF-Aib-Ala-Phe-Leu-Az3-2F3MeF-BztA-Gln-NH2]",175
12,"CC(=O)N1CCC[C@]12CC=CCCCC1(CCCC=CCCCOC(=O)N3CC[C@@](C(=O)N[C@@H](Cc4ccsc4)C(=O)N[C@@H](Cc4csc5ccccc45)C(=O)N[C@@H](CCCNC(=N)N)C(N)=O)(C3)NC(=O)[C@H](CC(N)=O)NC(=O)[C@H](Cc3ccccc3)NC(=O)[C@H](C)NC(=O)[C@H](C)NC(=O)[C@H]([C@@H](C)O)NC(=O)[C@H](CC(N)=O)NC1=O)NC(=O)[C@H](CC(C)(C)C)NC(=O)[C@H](CC(=O)O)NC2=O (stereo partly drawn) [I-1743, Ac-PL3-Asp-Npg-B5-Asn-Thr-Ala-Ala-Phe-Asn-PyrS2-3Thi-BztA-Arg-NH2]",469
